The results in this text go back to patent publication US20240199546A1, “INHIBITORS OF SOLUTE CARRIER FAMILY 6A MEMBER 19 (SLC6A19) AND METHODS OF USE THEREOF” (Maze Therapeutics, Inc., priority 2022, published 2024).

In assay [1] the target is T1, human SLC6A19 and TMEM27 (Homo sapiens, UniProt Q695T7).
T1 construct: expressed in transfected cells
T1 sequence (Q695T7 1-634): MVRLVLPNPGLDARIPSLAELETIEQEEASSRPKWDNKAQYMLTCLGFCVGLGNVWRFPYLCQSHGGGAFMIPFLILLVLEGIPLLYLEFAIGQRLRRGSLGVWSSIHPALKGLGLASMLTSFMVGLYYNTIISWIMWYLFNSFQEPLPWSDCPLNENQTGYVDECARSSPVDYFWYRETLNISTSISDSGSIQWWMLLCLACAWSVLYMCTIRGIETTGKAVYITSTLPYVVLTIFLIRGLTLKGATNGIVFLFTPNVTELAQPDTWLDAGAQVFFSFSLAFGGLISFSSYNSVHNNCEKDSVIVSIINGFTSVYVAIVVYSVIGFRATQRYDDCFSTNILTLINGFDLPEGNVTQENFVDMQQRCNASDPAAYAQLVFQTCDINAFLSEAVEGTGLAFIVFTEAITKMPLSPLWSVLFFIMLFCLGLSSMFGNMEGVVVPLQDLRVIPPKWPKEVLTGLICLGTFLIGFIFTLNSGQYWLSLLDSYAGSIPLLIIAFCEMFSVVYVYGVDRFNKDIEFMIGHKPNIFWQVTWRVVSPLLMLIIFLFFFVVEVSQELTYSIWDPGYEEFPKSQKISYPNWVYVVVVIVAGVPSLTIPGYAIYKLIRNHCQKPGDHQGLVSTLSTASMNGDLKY
T1 sequence (Q9HBJ8 15-222 partner): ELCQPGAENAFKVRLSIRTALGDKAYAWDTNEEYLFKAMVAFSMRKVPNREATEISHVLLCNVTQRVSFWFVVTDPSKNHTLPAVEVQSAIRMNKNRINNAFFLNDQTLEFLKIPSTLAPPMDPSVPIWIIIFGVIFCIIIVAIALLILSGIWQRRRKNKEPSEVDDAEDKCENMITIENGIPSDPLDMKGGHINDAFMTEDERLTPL
Nature of the assay: Radiolabelled (3H) leucine uptake in CHO cells with doxycycline-inducible expression of human SLC6A19 and TMEM27 (Example B-1). Format: cell-based. The note with it: CHO cells with doxycycline-inducible expression of human SLC6A19 and TMEM27, read-out: SLC6A19_Radioligand Uptake Assay IC50. The essentials:
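CHO cells were induced with doxycycline for 18 h at 37 °C, washed in HBSS, then exposed to compounds for 1 h: 8-point, 3-fold dilutions in duplicate, 0.5% DMSO final. Uptake measured by scintillation counting after 2 h shaking. Activity normalized with positive control as 0% and DMSO as 100%.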

Assay [2] deals with T1, human SLC6A19 and TMEM27. Kind of assay: 13C6,15N-isoleucine uptake in CHO cells with doxycycline-inducible expression of human SLC6A19 and TMEM27, RapidFire mass spectrometry (Example B-2). Format: cell-based. The note with it: read-out: SLC6A19_RapidFire Uptake Assay IC50. The essentials: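 Read-out is RapidFire mass-spec peak area of 13C6,15N-isoleucine taken up over 20 min at 37 °C, after 20 min compound pre-exposure in pH 7.2 HEPES-buffered saline. Cells: doxycycline-induced CHO co-expressing human SLC6A19 and TMEM27; compounds as duplicate 10-point 2-fold dilutions, positive control setting 0% activity.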

The IC50 is the concentration that gives 50% inhibition.

In the case of `CC1(C(=O)NCc2cc3cc(CC(F)(F)F)c(OCc4cscn4)cc3[nH]2)CC1` [Compound 648, 1-methyl-N-((6-(thiazol-4-ylmethoxy)-5-(2,2,2-trifluoroethyl)-1H-indol-2-yl)methyl)cyclopropane-1-carboxamide], the IC50 in assay [1] was determined as 785 nM; in assay [2], 344 nM.

In the case of `CC1(C(=O)NCc2cc3cc(CC(F)(F)F)c(OCc4ccon4)cc3[nH]2)CC1` [Compound 649, N-((6-(isoxazol-3-ylmethoxy)-5-(2,2,2-trifluoroethyl)-1H-indol-2-yl)methyl)-1-methylcyclopropane-1-carboxamide], the IC50 in assay [1] turned out to be 326 nM; in assay [2], 217 nM.
